Test results reported in US20190369111A1, “MOLECULAR KINETICS EVALUATION METHOD AND SCREENING METHOD” (Tokyo University of Science Foundation, priority 2016, published 2019).

Molecular target: T1, wild-type H-Ras protein (Homo sapiens, UniProt P01112)
T1 construct: an endogenous wild-type K-Ras protein and wild-type H-Ras protein in HeLa cells; endogenous in cells; host or cells: HeLa cells
Assay: Degradation of endogenous wild-type H-Ras protein in HeLa cells, Western blot analysis
Format: cell-based
Settings: 48 hours after addition
Protocol: HeLa cells were seeded in a 24-well plate at a cell density of 8×10^4 cells/well, and then cultured under conditions of 37° C. and 5 vol % CO2 for 16 hours.
After 16 hours from cell seeding, TUS-007 was added to HeLa cells as follows. As a medium, a serum-free medium (37° C.) in which 1 mass % L-glutamine solution (Sigma-Aldrich) was added to D-MEM (high D-glucose, phenol red, sodium pyruvate (Wako Pure Chemical Industries, Ltd.)) was used. It is noted that the L-glutamine solution was added immediately before use. A DMSO solution containing TUS-007 was mixed with the medium so that the concentration of DMSO was 1 vol %, and added to each well at 500 μL/well, and cultured under conditions of 37° C. and 5 vol % CO2. As a control, DMSO was used.
The medium was removed 48 hours after addition of TUS-007, and then PBS was added to wash the cells. […]
After electrophoresis, proteins were transferred to a PVDF membrane (Immobion™-P, Millipore) under conditions of 100 V and 2 hours using a tank-type blotting device and a transfer buffer (25 mM Tris-HCl, 195 mM glycine, 0.01% SDS, 15% methanol). […] Subsequently, the membrane was treated with a chemiluminescence reagent Immobilon™ Western (Millipore), and then chemiluminescence was detected using a lumino image analyzer LAS-3000 (FUJIFILM Corporation). […]

T1 sequence (P01112 whole entry): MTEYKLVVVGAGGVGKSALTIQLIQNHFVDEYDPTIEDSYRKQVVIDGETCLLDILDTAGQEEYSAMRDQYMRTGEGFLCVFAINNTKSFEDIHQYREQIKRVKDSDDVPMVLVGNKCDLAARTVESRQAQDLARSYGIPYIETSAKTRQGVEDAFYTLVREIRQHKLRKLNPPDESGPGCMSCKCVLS

## CC[C@@H](C)[C@H](NC(=O)CCCCCCNC(=O)[C@H](CC(C)C)NC(=O)CNC(=O)c1cc(Cl)ccc1Cl)C(=O)Nc1ccc2[nH]c(Cc3c[nH]c4ccccc34)nc2c1 [TUS-007]
  amount of endogenous wild-type H-Ras protein: reduced
